Like-named read-outs stand apart in the source and are kept apart here.
Tests used:
Candida albicans NMT = molecular target: T1, Candida albicans NMT (Candida albicans, UniProt P30418); test: NMT enzyme inhibition assay (radiochemical HPLC end-point), Candida NMT; assay type: biochemical; settings: for IC50: read-out: IC50 caNMT
T1 construct: made in house; host or cells: E. coli
T1 sequence (P30418 1-451): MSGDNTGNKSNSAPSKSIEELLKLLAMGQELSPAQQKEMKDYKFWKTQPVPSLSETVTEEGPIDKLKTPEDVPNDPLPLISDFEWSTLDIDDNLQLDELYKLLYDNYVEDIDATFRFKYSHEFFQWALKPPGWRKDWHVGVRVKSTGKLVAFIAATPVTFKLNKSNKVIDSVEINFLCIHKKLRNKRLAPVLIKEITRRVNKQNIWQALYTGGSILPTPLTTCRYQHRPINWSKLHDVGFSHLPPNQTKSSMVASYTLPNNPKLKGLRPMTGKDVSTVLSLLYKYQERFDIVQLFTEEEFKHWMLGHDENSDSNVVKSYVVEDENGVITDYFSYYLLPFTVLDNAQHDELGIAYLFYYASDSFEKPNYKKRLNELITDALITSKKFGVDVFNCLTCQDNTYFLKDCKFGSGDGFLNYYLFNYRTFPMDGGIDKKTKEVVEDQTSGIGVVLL
Experimental: Recombinant Candida albicans and human NMTs were expressed and purified from E. coli using previously described protocols. [D. A. Towler et al, Proc. Natl. Acad. Sci. USA, 84, 2707-2712 (1987); R. C. Weigand et al, J. Biol. Chem., 267, 8591-8598 (1992); R. J. Duronio et al, Proc. Natl. Acad. Sci. USA, 89, 4129-4133 (1992)] The ability of compounds to inhibit Candida NMT enzymatic activity was assessed using a radiochemical HPLC end-point assay as described previously for Saccharomyces cerevisiae and human NMTs. [D. Towler et al, Proc. Natl. Acad. Sci. USA, 83, 2812-2816 (1986); W. J. Rocque et al, J. Biol. Chem., 268, 9964-9971 (1991)] The donor substrate [^3H]myristoyl-coenzyme A was enzymatically synthesized from [^3H]myristic acid (50 Ci/mmol, Amersham, Arlington Heights, Ill.) and coenzyme A (Fluka Chemical Corp., Ronkonkoma, N.Y.), and purified as described previously. [W. J. Rocque et al, J. Biol. Chem., 268, 9964-9971 (1991)] The peptide acceptor substrate GNAASARR-NH2 was prepared by solid-phase peptide synthesis using the t-Boc amino acid methodology, followed by HF treatment and reverse-phase HPLC purification. Inhibitor stock solutions were prepared at 22 mM in DMSO; the final concentration of DMSO in each assay was 0.5% (v/v). Inhibition assays were carried out by combining variable amounts of inhibitor or buffer with […] of [^3H]myristoyl-coenzyme A (1 μCi, 9.09 Ci/mmol) and 2.2 nmoles of GNAASARR-NH2 in a total volume of 60 μL of 0.2 M N-[2-hydroxy-ethyl]piperazine-N′-[2-ethanesulfonic acid], pH 7.4, 2 mM DL-dithiothreitol, 0.2 mM ethylene glycol-bis-(β-aminoethyl ether) N,N,N′,N′-tetraacetic acid, and initiating the reaction by the addition of 50 μL of a Candida NMT solution (7-12 ng/50 μL). Assays with human NMT were identical except that they used 60-75 ng/50 μL of enzyme solution and 0.22 nmoles of GNAASARR-NH2. The reaction was quenched after 10 minutes at 24° C. by the addition of ice-cold MeOH, and the reaction products were separated and measured using C4 reverse-phase HPLC (Vydac 214TP10415; Separations Group, Hesperia, Calif.) and in-line scintillation counting using a Radiomatic A250 (Packard Instruments, Downers Grove, Ill.) and Ecolite(+) (ICN Biomedical, Costa Mesa, Calif.) as the scintillant. Selectivity was determined by calculating the ratio of the IC50 against human NMT to the IC50 against C. albicans NMT.

C.trop. = test: Antifungal susceptibility testing, pH 5.4 assay, different strains of Candida; assay type: cell-based, C.tropicalis; settings: Candida tropicalis, 24 hr
[1] = system: C. albicans Arf N-myristoylation; test: Gel shift assay for degree of N-myristoylation of Arf in C. albicans cultures; assay type: cell-based, Candida albicans; settings: 200 μM, 24° C., strain MONCA105; for reduction in Arf N-myristoylation: 2 h
Source text: N-myristoylation of C. albicans ADP ribosylation factor (Arf), produces a change in its electrophoretic mobility during SDS-polyacrylamide gel electrophoresis. The acylated species migrates more rapidly than the nonmyristoylated species [J. K. Lodge et al, J. Biol. Chem., 269, 2996-3009 (1994)].
Based on these findings, acylation of C. albicans Arf, measured using this protein gel shift assay, was used to define the effects of peptide analog inhibitors of C. albicans NMT on the efficiency of protein N-myristoylation in cultures of this fungal pathogen.
The assay was performed as follows. A single colony of Candida albicans strain MONCA105 NMT, [R. A Weinberg et al, Mol. Micro., in press, (1995)] was innoculated into YPD medium (YPD=1% yeast extract, 2% peptone, 2% dextrose). Cultures were shaken at 24° C. for 12-16 h. Cells were recovered by centrifugation, washed 3 times with sterile PBS, pH 7.4 and resuspended in YPD at an OD600 of 1.0-1.5. Fifty microliters of a 20 mM stock solution of peptide analog (prepared in sterile deionized H2O) were added to a sterile polypropylene tube containing 4.5 mL of fresh YPD medium. Five hundred microliters of the C. albicans culture was then added to the tubes. Controls consisted of no added peptide analog (i.e. water alone).The tubes were incubated at 24° C. with vigorous shaking for 2 hr or 4 hr. For each experiment, duplicate tubes were assayed for each condition and at each time point. Cells were recovered by centrifugation, resuspended in 200 μL of Lysis Buffer (0.125M Tris-HCl, pH 6.8/4% SDS), and transferred to microfuge tubes containing 200 μL of glass beads (bead diameter=425-600 μm, Sigma).The slurry was vortexed 3 times for 1 min each. Between each cycle of vortexing, the tubes were placed on ice for 1 min. The mixture was then placed in a boiling water bath for 10 min, vortexed once again for 1 min and subsequently spun at 10,000×g for 2 min. The cleared supernatant fraction was removed, spun again at 10,000×g for 5 min and the total protein concentration determined. […]

Row | SMILES | IC50 (Candida albicans NMT; Comparator Compound A table) | inhibition of purified C. albicans Nmt in vitro (Candida albicans NMT; result in words) | EC50 (C.trop.) | reduction in Arf N-myristoylation [1] | reduction of Arf acylation ([1]; 4 h) | IC50 (Candida albicans NMT; Table V) | Selectivity (Candida albicans NMT; ratio of IC50 against human NMT to IC50 against C. albicans NMT)
1 | Cc1nccn1CCCCc1ccc(CC(=O)N[C@H](CO)C(=O)N[C@H](CCCCN)C(=O)N[C@H](CC2CCCCC2)C(=O)O)cc1 [Comparator Compound A, D-Alanine, 3-cyclohexyl-N-[N^2-[N-[[4-[4-(2-methyl-1H-imidazol-1-yl)butyl]phenyl]acetyl]-D-seryl]-D-lysyl]-, bis-trifluoroacetate] | > 1000 µM | not an inhibitor | > 250 µM | no detectable reduction | no detectable reduction | – | –
2 | Cc1nccn1CCCCc1ccc(CC(=O)N[C@@H](CO)C(=O)N[C@@H](CCCCN)C(=O)N[C@@H](CC2CCCCC2)C(=O)O)cc1 [Example 2, L-Alanine, 3-cyclohexyl-N-[N^2-[N-[[4-[4-(2-Methyl-1H-imidazol-1-yl)butyl]phenyl]acetyl]-L-seryl]-L-lysyl]-, bis-trifluoroacetate] | – | – | > 250 µM | ~10% | – | 1.4 µM | 560
